According to patent US8580747B2, “Cyclic natriuretic peptide constructs” (Palatin Technologies, Inc., priority 2006, dated 2013):
Where two headings read alike, the source gives them in different places. Bridge positions count the residues as written; N and C are the ends. Square brackets hold non-standard residues; d marks the D form. Peptide text beside a SMILES is read from it. * marks the point of attachment. Piperazin2one(3S-Bu,6R-CO) = CCCC[C@@H]1NC[C@H](C(=O)*)NC1=O; X1 = N=C(N)NCCC[C@H]1C(=O)N[C@@H](C(N)=O)CN1*; Nle = CCCC[C@H](N)C(=O)O; Orn = NCCC[C@H](N)C(=O)O

Tests used:
[1] = biological target: T1, NEP (neutral endopeptidase) (Homo sapiens, UniProt P08473); experiment: hNEP resistance assay (digestion by neutral endopeptidase); assay type: in vitro ADME; conditions: pH 7.4
T1 construct: purchased R&D Systems, Minneapolis, Minn; 1182-ZN
T1 sequence (P08473 52-750 limits assumed): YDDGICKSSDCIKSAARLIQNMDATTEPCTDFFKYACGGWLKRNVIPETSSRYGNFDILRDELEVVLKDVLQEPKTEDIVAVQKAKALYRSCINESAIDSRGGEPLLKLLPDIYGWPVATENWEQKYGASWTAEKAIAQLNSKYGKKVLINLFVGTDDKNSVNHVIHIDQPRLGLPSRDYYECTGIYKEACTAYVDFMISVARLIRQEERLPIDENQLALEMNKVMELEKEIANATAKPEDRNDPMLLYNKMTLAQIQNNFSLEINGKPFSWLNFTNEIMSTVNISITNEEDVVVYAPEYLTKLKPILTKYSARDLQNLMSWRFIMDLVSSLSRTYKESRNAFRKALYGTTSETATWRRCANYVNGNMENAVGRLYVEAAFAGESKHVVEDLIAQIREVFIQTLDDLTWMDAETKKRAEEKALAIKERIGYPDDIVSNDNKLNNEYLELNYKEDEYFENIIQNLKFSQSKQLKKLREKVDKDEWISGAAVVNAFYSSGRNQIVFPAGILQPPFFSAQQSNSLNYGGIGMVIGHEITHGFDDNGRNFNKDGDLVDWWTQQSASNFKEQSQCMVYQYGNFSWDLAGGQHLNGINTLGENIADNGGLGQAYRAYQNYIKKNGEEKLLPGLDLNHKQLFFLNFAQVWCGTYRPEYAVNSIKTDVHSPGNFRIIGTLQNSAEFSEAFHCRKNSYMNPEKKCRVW
Protocol: NEP resistance of various constructs of the invention was evaluated using the following experimental procedure. All constructs were diluted in 0.1 M Tris-HCL buffer (pH 7.4) to 100 μM. 40 μL of diluted constructs were added to each tube and all tubes were kept on ice. 40 μL of diluted NEP, either human recombinant NEP (R&D Systems, Minneapolis, Minn., catalogue #1182-ZN) at 8 ng/μL or mouse NEP (R&D Systems, catalog #1126-ZN) at 2.5 ng/μL, was added to each tube. The tubes were mixed gently and spun. […] At the end of the incubation time, the reaction was stopped by adding 5 μL of 10% TFA. […] The extent to which NEP was active against the constructs was then analyzed by HPLC and/or LC/MS. Data analysis included determining the percent of remaining starting material, i.e., undigested peptide construct, and the percent and sequence of each proteolytic fragment.

[2] = rat, in vivo, sc
[3] = rat, in vivo, iv
[4] = human, isolated enzyme neprilysin

| AUC ([2]; 5 mg/kg) | Cmax ([2]; 5 mg/kg) | Tmax ([2]; 5 mg/kg) | half-life ([2]; 5 mg/kg) | clearance [3] | AUC ([3]; 0.3 mg/kg) | Vd ([3]; 0.3 mg/kg) | clearance ([3]; 0.3 mg/kg) | half-life ([3]; 0.3 mg/kg) | AUC ([3]; 2 mg/kg) | Vd ([3]; 2 mg/kg) | clearance ([3]; 2 mg/kg) | half-life ([3]; 2 mg/kg) | other results | SMILES |
| --- | --- | --- | --- | --- | --- | --- | --- | --- | --- | --- | --- | --- | --- | --- |
| 0.255 µM·h | 131 nM | 12 min | 96 min | 55 mL/min/kg | 0.061 µM·h | 0.4 L/kg | 43 mL/min/kg | 12 min | 0.263 µM·h | 0.7 L/kg | 72 mL/min/kg | 12 min | remaining at 1 h, 50 µM [1, 4]: 91%; remaining at 2 h, 50 µM [1, 4]: 82%; AUC ([2]; 1 mg/kg): 0.04 µM·h; Cmax ([2]; 1 mg/kg): 85 nM; Tmax ([2]; 1 mg/kg): 6 min; half-life ([2]; 1 mg/kg): 12 min | CCCC[C@@H]1NC[C@H](C(=O)N[C@H]2CSSC[C@@H](C(=O)N[C@@H](Cc3ccc(O)cc3)C(=O)N3C[C@H](C(N)=O)NC(=O)[C@@H]3CCCNC(=N)N)NC(=O)[C@H](CO)NC(=O)[C@H]([C@@H](C)CC)NC(=O)[C@H](CCCNC(=N)N)NC(=O)[C@H](CC(=O)O)NC(=O)[C@H](CCCC)NC(=O)[C@H](CCCNC(=N)N)NC(=O)CNC(=O)CNC(=O)[C@H](Cc3ccccc3)NC(=O)[C@H](Cc3c[nH]cn3)NC2=O)NC1=O [1-18] ({Piperazin2one(3S-Bu,6R-CO)}-CHFGGR[Nle]DRISCY-X1; disulfide 1-12) |
| 0.232 µM·h | 250 nM | 18 min | 30 min | 21 mL/min/kg | 0.116 µM·h | 0.2 L/kg | 15 mL/min/kg | 12 min | 0.828 µM·h | 0.3 L/kg | 21 mL/min/kg | 18 min | remaining at 1 h, 50 µM ([1]; human recombinant NEP (neutral endopeptidase), incubation with human recombinant NEP at 37° C., 1 h, read-out: hNEP % of Starting Material 1 h): 83%; remaining at 2 h, 50 µM ([1]; human recombinant NEP (neutral endopeptidase), incubation with human recombinant NEP at 37° C., 2 h, read-out: hNEP % of Starting Material 2 h): 70% | CCCC[C@@H]1NC[C@H](C(=O)N[C@H]2CSSC[C@@H](C(=O)N[C@@H](Cc3ccc(O)cc3)C(=O)N3C[C@H](C(N)=O)NC(=O)[C@@H]3CCCNC(=N)N)NC(=O)[C@H](CO)NC(=O)[C@H]([C@@H](C)CC)NC(=O)[C@H](CCCN)NC(=O)[C@H](CC(=O)O)NC(=O)[C@H](CCCC)NC(=O)[C@H](CCCNC(=N)N)NC(=O)CNC(=O)CNC(=O)[C@H](Cc3ccccc3)NC(=O)[C@H](Cc3c[nH]cn3)NC2=O)NC1=O [1-55] ({Piperazin2one(3S-Bu,6R-CO)}-CHFGGR[Nle]D[Orn]ISCY-X1; disulfide 1-12) |
